In the experiment the test system is peritoneal macrophages. Put plainly: Phagocytic function of peritoneal macrophages ex vivo in CFLP outbred mice (CY-immunosuppressed). The source says:
6.2./Examination of the Effect on the Phagocytic Function of Peritoneal Macrophages CFLP Outbred in Mice
Macrophage phagocytosis ex vivo (X=yeast/100 cells)

The source of these data is patent publication US20260315564A1, “THE USE OF TP3 (THYMOPENTIN ANALOG) BY INCREASING THE ACTIVITY AND NUMBER OF T-CELLS INVOLVED IN THE DEFENSE MECHANISM OF THE IMMUNE SYSTEM OF MAMMALS, FOR THE PREVENTION OR TREATMENT OF DISEASES TO EXTEND THE AVERAGE LIFESPAN” (priority 2023, published 2026).

SMILES strings stand for the structures. Marks after values point to notes of the source that are not given here.

With `O=P1(N(CCCl)CCCl)NCCCO1` (centres unmarked) [CY], where the note is “CY immunosuppression, 1.0 mg/kg/sc (TP3), in words”, the “phagocytic activity of macrophages” value is recorded as “significantly inhibited”. Also, the “macrophage phagocytosis ex vivo” value (CY p.o. alone, n = 15, untreated control 194.5) is reported as 111.5* yeast/100 cells.
